Source: the NIST ThermoML archive (doi:10.1021/acs.jced.5b00820)

Assay: refractive index (Na D-line) (dimensionless); xn = mol fraction of the nth substance listed
Conditions: 102.2 kPa, Liquid, Standard Abbe refractometry

C[Si](C)(O[Si](C)(C)c1ccccc1)c1ccccc1 [1,3-diphenyltetramethyldisiloxane] + C=C[Si]1(C)O[Si](C)(C=C)O[Si](C)(C=C)O[Si](C)(C=C)O1
refractive index
Conditions	308.15 K	313.15 K	318.15 K	323.15 K	328.15 K
x1 = 0.0511	1.43117	1.4288	1.42643	1.42402	1.42168
x1 = 0.1004	1.43477	1.43241	1.43005	1.42765	1.42534
x1 = 0.1503	1.43849	1.4361	1.43374	1.43138	1.42904
x1 = 0.2	1.44222	1.43984	1.4375	1.43511	1.43277
x1 = 0.2537	1.4463	1.44393	1.44162	1.43922	1.43688
x1 = 0.3001	1.4499	1.44754	1.44521	1.44282	1.44051
x1 = 0.3507	1.45386	1.4515	1.44918	1.44682	1.44446
x1 = 0.4002	1.4578	1.45544	1.45312	1.45075	1.4484
x1 = 0.4503	1.46186	1.45951	1.45719	1.45481	1.45253
x1 = 0.4999	1.4659	1.46356	1.46122	1.45885	1.45654
x1 = 0.5501	1.47011	1.46778	1.46545	1.46309	1.46081
x1 = 0.597	1.47406	1.47174	1.46939	1.46705	1.46474
x1 = 0.6498	1.47861	1.47627	1.47398	1.47166	1.46934
x1 = 0.7005	1.48302	1.48067	1.47836	1.47601	1.47373
x1 = 0.7492	1.48734	1.48502	1.48271	1.48037	1.47809
x1 = 0.8001	1.49193	1.48963	1.4873	1.48499	1.48269
x1 = 0.8497	1.49647	1.49417	1.49187	1.4896	1.48727
x1 = 0.8999	1.50106	1.49877	1.49645	1.49415	1.4918
x1 = 0.9502	1.50586	1.50356	1.50122	1.49894	1.49665
x1 = 1	1.51066	1.50836	1.5061	1.50381	1.5015
